Patent US20060045953A1 (priority 2004, published 2006)

molecular target: T1, hT1R1/hT1R3 umami receptor (Homo sapiens, UniProt Q7RTX0+Q7RTX1); experiment: In vitro hT1R1/hT1R3 umami taste receptor activation assay (FLIPR, dose response); format: cell-based; settings: Table A, Umami Amides; read-out: Umami EC50
T1 construct: expressed in transfected cells; host or cells: HEK293 derivative stably expressing Gα15, clone I-17, expression induced with mifepristone
T1 sequence (Q7RTX1 21-841): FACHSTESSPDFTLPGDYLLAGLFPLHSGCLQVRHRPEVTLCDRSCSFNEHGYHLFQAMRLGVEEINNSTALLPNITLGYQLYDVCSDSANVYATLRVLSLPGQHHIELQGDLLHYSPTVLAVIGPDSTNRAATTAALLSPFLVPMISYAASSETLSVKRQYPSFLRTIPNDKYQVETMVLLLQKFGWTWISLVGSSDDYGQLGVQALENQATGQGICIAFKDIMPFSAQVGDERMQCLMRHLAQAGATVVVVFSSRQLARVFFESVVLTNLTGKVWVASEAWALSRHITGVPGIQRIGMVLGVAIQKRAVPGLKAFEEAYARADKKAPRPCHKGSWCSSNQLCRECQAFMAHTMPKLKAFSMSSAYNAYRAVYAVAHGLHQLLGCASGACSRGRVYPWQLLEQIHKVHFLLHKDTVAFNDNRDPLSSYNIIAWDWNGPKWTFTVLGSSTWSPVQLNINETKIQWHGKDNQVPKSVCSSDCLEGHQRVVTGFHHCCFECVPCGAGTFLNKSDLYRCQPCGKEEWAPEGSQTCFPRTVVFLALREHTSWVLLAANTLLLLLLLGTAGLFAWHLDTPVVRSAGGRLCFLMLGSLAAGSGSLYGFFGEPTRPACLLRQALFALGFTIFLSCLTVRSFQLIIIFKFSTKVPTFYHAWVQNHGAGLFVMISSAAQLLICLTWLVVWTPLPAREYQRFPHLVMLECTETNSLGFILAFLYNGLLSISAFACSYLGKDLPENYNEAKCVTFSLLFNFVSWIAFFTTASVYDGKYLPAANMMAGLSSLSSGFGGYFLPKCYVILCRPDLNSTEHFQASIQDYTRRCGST
T1 sequence (Q7RTX0 21-852): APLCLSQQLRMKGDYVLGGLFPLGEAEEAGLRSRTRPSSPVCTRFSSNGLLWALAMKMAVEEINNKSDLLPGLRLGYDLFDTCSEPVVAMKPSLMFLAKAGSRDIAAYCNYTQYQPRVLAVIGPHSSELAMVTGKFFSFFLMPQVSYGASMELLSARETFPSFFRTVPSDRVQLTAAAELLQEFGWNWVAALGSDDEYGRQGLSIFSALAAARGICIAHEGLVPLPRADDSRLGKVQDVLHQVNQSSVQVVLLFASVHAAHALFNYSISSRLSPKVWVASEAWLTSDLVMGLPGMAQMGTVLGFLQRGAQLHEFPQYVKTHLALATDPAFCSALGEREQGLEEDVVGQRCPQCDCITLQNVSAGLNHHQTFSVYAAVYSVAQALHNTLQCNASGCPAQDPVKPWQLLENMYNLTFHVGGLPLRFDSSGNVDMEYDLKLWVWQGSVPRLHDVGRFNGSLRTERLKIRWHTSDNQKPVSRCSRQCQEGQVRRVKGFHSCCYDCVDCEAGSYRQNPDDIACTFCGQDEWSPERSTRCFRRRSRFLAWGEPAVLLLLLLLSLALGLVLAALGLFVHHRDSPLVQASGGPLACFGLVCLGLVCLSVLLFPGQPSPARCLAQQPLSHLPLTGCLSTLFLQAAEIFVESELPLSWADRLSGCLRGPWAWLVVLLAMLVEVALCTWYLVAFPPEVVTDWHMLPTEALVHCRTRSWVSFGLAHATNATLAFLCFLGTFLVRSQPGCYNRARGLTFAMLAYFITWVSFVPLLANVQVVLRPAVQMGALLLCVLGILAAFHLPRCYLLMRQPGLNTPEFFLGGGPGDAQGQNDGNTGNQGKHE

Structure (SMILES)	EC50 [µM]
CCOc1ccc(NC(=O)c2cc(Cl)ccc2Cl)cc1 [Example A3, 2,5-dichloro-N-(4-ethoxyphenyl)benzamide]	1.08
CCC(COC)NC(=O)c1cc2cc(Cl)ccc2o1 (stereo not shown) [Example A11, 5-chloro-N-(1-methoxybutan-2-yl)benzofuran-2-carboxamide]	1.05
CCCC(NC(=O)c1cc2cc(OC)ccc2o1)C(C)C (stereo not shown) [Example A12, 5-methoxy-N-(2-methylhexan-3-yl)benzofuran-2-carboxamide]	1.13
CCC(CC)NC(=O)c1cc2cc(OC)ccc2o1 [Example A13, 5-methoxy-N-(pentan-3-yl)benzofuran-2-carboxamide]	1.14
COC(=O)C(CCSC)NC(=O)c1cc2cc(OC)ccc2o1 (stereo not shown) [Example A14, methyl 2-(5-methoxybenzofuran-2-carboxamido)-4-(methylthio)butanoate]	1.14
CCOC(=O)[C@@H]1CCCC[C@H]1NC(=O)c1cc2cc(OC)ccc2o1 [Example A15, (1R,2R)-ethyl 2-(5-methoxybenzofuran-2-carboxamido)cyclohexanecarboxylate]	1.14
CCC(NC(=O)c1cc2cc(OC)ccc2o1)C(C)C (stereo not shown) [Example A16, 5-methoxy-N-(2-methylpentan-3-yl)benzofuran-2-carboxamide]	1.18
COc1ccc2oc(C(=O)NC(C(C)C)C(C)C)cc2c1 [Example A17, N-(2,4-dimethylpentan-3-yl)-5-methoxybenzofuran-2-carboxamide]	1.2
CCCC(CC(C)C)NC(=O)c1cc2cc(OC)ccc2o1 (stereo not shown) [Example A18, 5-methoxy-N-(2-methylheptan-4-yl)benzofuran-2-carboxamide]	1.27
CCCC(COC)NC(=O)c1cc2cc(OC)ccc2o1 (stereo not shown) [Example A19, 5-methoxy-N-(1-methoxypentan-2-yl)benzofuran-2-carboxamide]	1.3
CCCC(CC(C)C)NC(=O)c1cc2cc(C)ccc2o1 (stereo not shown) [Example A20, 5-methyl-N-(2-methylheptan-4-yl)benzofuran-2-carboxamide]	1.32
CCC(CC)NC(=O)c1cc2ccccc2o1 [Example A21, N-(pentan-3-yl)benzofuran-2-carboxamide]	1.52
CCCC(CCC)NC(=O)c1ccc2ncsc2c1 [Example A22, Benzothiazole-6-carboxylic acid (1-propyl-butyl)-amide]	1.58
CCCC(CC(C)C)NC(=O)c1ccc2nc(C)oc2c1 (stereo not shown) [Example A24, 2-methyl-N-(2-methylheptan-4-yl)benzo[d]oxazole-6-carboxamide]	1.12
CCCC(NC(=O)c1ccc2nc(C)oc2c1)C(C)C (stereo not shown) [Example A26, 2-methyl-N-(2-methylhexan-3-yl)benzo[d]oxazole-6-carboxamide]	1.6
CCCC(CCC)NC(=O)c1ccc2nc(CC)oc2c1 [Example A27, 2-ethyl-N-(heptan-4-yl)benzo[d]oxazole-6-carboxamide]	1.61
COC(=O)[C@@H](CC(C)C)NC(=O)c1ccc2oc(C)nc2c1 [Example A28, (R)-4-Methyl-2-[(2-methyl-benzooxazole-5-carbonyl)-amino]-pentanoic acid methyl ester]	1.69
CCCC(CCC)NC(=O)c1ccc2ncoc2c1 [Example A29, N-(heptan-4-yl)benzo[d]oxazole-6-carboxamide]	1.91
Cc1ccoc1C(=O)NC1CCCC(C)C1C (stereo not shown) [Example A32, N-(2,3-dimethylcyclohexyl)-3-methylfuran-2-carboxamide]	1.15
Cc1cc(C(=O)NC2CCCCC2C)oc1C (stereo not shown) [Example A33, 4,5-dimethyl-N-(2-methylcyclohexyl)furan-2-carboxamide]	1.33
COC(=O)[C@@H](CC(C)C)NC(=O)c1ccc2ncccc2c1 [Example A37, (R)-methyl 4-methyl-2-(quinoline-6-carboxamido)pentanoate]	1.5
CCCC(CCC)NC(=O)c1ccc(C)s1 [Example A38, 5-Methyl-thiophene-2-carboxylic acid (1-propyl-butyl)-amide]	1.22
Cc1ccc(C(=O)NC2CCCc3ccccc32)s1 (stereo not shown) [Example A39, 5-Methyl-thiophene-2-carboxylic acid (1,2,3,4-tetrahydro-naphthalen-1-yl) amide]	1.31

Now from value to compound:

EC50 [µM]	Structure (SMILES)
1.01	COC(=O)[C@@H](CC(C)C)NC(=O)c1ccc2[nH]ccc2c1 [Example A36, (R)-methyl 2-(1H-indole-5-carboxamido)-4-methylpentanoate]
0.93	COC(=O)c1ccc(NC(=O)c2c(Cl)ccc(Cl)c2OC)cc1 [Example A2, 4-(3,6-Dichloro-2-methoxy-benzoylamino)-benzoic acid methyl ester]
0.91	CCCC(CCC)NC(=O)c1cc2cc(OC)ccc2o1 [Example A10, N-(heptan-4-yl)-5-methoxybenzofuran-2-carboxamide]
0.82	CCCC(CCC)NC(=O)c1ccc2cc[nH]c2c1 [Example A35, N-(heptan-4-yl)-1H-indole-6-carboxamide]
0.71	COC(=O)[C@@H](CC(C)C)NC(=O)c1ccc2occc2c1 [Example A9, (R)-methyl 2-(benzofuran-5-carboxamido)-4-methylpentanoate]
0.7	CCCCC(CCCC)NC(=O)c1ccc2c(c1)OCO2 [Example A41, N-(nonan-5-yl)benzo[d][1,3]dioxole-5-carboxamide]
0.62	CCCC(CCC)NC(=O)c1cc(C)c(C)o1 [Example A31, N-(heptan-4-yl)-4,5-dimethylfuran-2-carboxamide]
0.53	COC(=O)[C@@H](CC(C)C)NC(=O)c1cc2ccccc2[nH]1 [Example A34, (R)-methyl 2-(1H-indole-2-carboxamido)-4-methylpentanoate]
0.5	CCC(CC(C)C)NC(=O)c1cc2cc(C)ccc2o1 (stereo not shown) [Example A8, 5-methyl-N-(5-methylhexan-3-yl)benzofuran-2-carboxamide]
0.49	CCCC(CCC)NC(=O)c1ccc(Br)o1 [Example A30, 5-bromo-N-(heptan-4-yl)furan-2-carboxamide]
0.46	COC[C@@H](CC(C)C)NC(=O)c1cc2cc(OC)ccc2o1 [Example A7, (R)-5-methoxy-N-(1-methoxy-4-methylpentan-2-yl)benzofuran-2-carboxamide]
0.38	CCCC(CC(C)C)NC(=O)c1ccc2oc(C)nc2c1 (stereo not shown) [Example A23, 2-methyl-N-(2-methylheptan-4-yl)benzo[d]oxazole-5-carboxamide]
0.37	COC(=O)[C@@H](CC(C)C)NC(=O)c1ccc2ccccc2c1 [Example A40, (R)-methyl 2-(2-naphthamido)-4-methylpentanoate]
0.22	CCOc1ccc(NC(=O)c2c(Cl)ccc(Cl)c2OC)cc1 [Example A1, 3,6-Dichloro-N-(4-ethoxy-phenyl)-2-methoxy-benzamide]

same assay, conditions: read-out: EC50 for activation of a hT1R1/hT1R3 umami receptor expressed in an HEK293 cell line

EC50 [µM]	Structure (SMILES)
4.4	O=C(NCCc1ccccn1)C(=O)NCc1nc2ccccc2s1 [Example 151, N-(Benzo[d]thiazol-2-ylmethyl)-N′-(2-(pyridin-2-yl)ethyl)oxalamide]
4.9	Cc1ccc(CNC(=O)C(=O)NCCc2ccccn2)o1 [Example 152, N-((5-Methylfuran-2-yl)methyl)-N2-(2-(pyridin-2-yl)ethyl)oxalamide]
1.82	Cc1occc1CNC(=O)C(=O)NCCc1ccccn1 [Example 153, N-((2-Methylfuran-3-yl)methyl)-N′-(2-(pyridin-2-yl)ethyl)oxalamide]
